{
  "source": "patent US12492229B2",
  "about": "“Antimicrobial peptides” (Donald Danforth Plant Science Center, priority 2019, dated 2025)",
  "key": {"Botrytis cinerea": {"tested_on": "Botrytis cinerea", "format": "cell-based", "conditions": "Pichia pastoris-expressed peptide"}, "Fusarium graminearum": {"tested_on": "Fusarium graminearum", "format": "cell-based", "conditions": "Pichia pastoris-expressed peptide"}, "Phytophthora capsici": {"tested_on": "Phytophthora capsici", "format": "cell-based", "conditions": "Pichia pastoris-expressed peptide"}, "Fusarium oxysporum": {"tested_on": "Fusarium oxysporum", "format": "cell-based"}, "Alternaria brassicicola": {"tested_on": "Alternaria brassicicola", "format": "cell-based", "conditions": "Pichia pastoris-expressed peptide"}, "A. rhizogenes": {"tested_on": "A. rhizogenes", "assay": "In vitro antibacterial activity", "format": "cell-based, Agrobacterium rhizogenes"}, "A. tumefaciens": {"tested_on": "A. tumefaciens", "assay": "In vitro antibacterial activity", "format": "cell-based"}},
  "note": "pIC50: −log10 of the molar value.",
  "data": [
    {"substance": "SbDef1: endogenous Sorghum bicolor defensin antifungal peptide, 49 amino acids, SEQ ID NO: 1; expressed in Pichia pastoris (VHVCTMRNKFFHGPCMSNKNCAASCIQHRIGGGGYCSSRRQICKCTLQC; Sorghum bicolor)", "values": [
      {"measurement": "pIC50", "setting": "Botrytis cinerea", "result": "5.70 to 5.82"},
      {"measurement": "MLC (minimal lethal concentration)", "setting": "Botrytis cinerea", "result": 3, "unit": "µM"},
      {"measurement": "pIC50", "setting": "Fusarium graminearum", "result": "5.52 to 5.70"},
      {"measurement": "MLC (minimal lethal concentration)", "setting": "Fusarium graminearum", "result": 6, "unit": "µM"},
      {"measurement": "pIC50", "setting": "Phytophthora capsici", "result": "5.52 to 5.70"},
      {"measurement": "MLC (minimal lethal concentration)", "setting": "Phytophthora capsici", "result": 6, "unit": "µM"},
      {"measurement": "pIC50", "setting": "Fusarium oxysporum", "result": "6.30 to 6.70"},
      {"measurement": "MLC (minimal lethal concentration)", "setting": "Fusarium oxysporum", "result": 0.75, "unit": "µM"},
      {"measurement": "pIC50", "setting": "Alternaria brassicicola", "result": "5.70 to 5.82"},
      {"measurement": "MLC (minimal lethal concentration)", "setting": "Alternaria brassicicola", "result": 6, "unit": "µM"},
      {"measurement": "antibacterial activity", "setting": "A. rhizogenes", "result": "does not exhibit any antibacterial activity"},
      {"measurement": "antibacterial activity", "setting": "A. tumefaciens", "result": "does not exhibit any antibacterial activity"}
    ]}
  ]
}
